Measured values: US20230066011A1, “PYRROLOPYRIMIDINE DERIVATIVE, AND PHARMACEUTICAL COMPOSITION FOR PREVENTING OR TREATING PROTEIN KINASE-RELATED DISEASE COMPRISING SAME AS ACTIVE INGREDIENT” (VORONOI CO., LTD., priority 2019, published 2023)

Experiments:
human DYRK1A and tau = assay: Inhibition of tau phosphorylation, ClariCELL Kinase Cell-Based Assay, HEK 293 cells expressing human DYRK1A and tau; details: for inhibition at 1 µM: HEK293, read-out: % inhibition at 1 uM, tau phosphorylation, compound 1 uM; for inhibition at 0.25 µM / inhibition at 0.5 µM: HEK293, tau phosphorylation; for inhibition at 0.25 µM: compound 0.25 uM; for inhibition at 0.5 µM: compound 0.5 uM
Protocol: An inhibitory effect on tau phosphorylation was determined using the ClariCELL™ Kinase Cell-Based Assay service (commercially available from CamaBio USA, Inc.). Human embryonic kidney (HEK 293) cells temporarily expressing human DYRK1A and tau were exposed to the compound, and then lysed to release cell proteins. In this case, the released tau was captured on a plate, and a degree of phosphorylation was quantified by ELISA using a tau phosphorylation-specific antibody.

human GST-DYRK1A = biological target: T1, human GST-DYRK1A (Homo sapiens, UniProt Q13627); assay: GST-DYRK1A enzyme inhibition, ADP-Glo kinase assay; format: biochemical; details: ATP 10 μM, GST-DYRK1A full length, read-out: DYRK1 IC50
T1 construct: purified human GST-DYRK1A (full length, Thermo Scientifics) enzyme; purchased Thermo Scientifics
How it was run: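 Full-length human GST-DYRK1A (10 ng) with 10 μM ATP and specific substrate in 40 mM Tris-HCl pH 7.4, 20 mM MgCl2, 0.5 mg/mL BSA, 50 μM DTT, 1 h at 25 °C. ADP formation read by ADP-Glo luminescence relative to solvent control; IC50 from three data sets.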

TNF-α = assay: Inhibition of LPS-induced TNF-α secretion of THP-1 monocytes (ELISA); format: cell-based, human; details: Homo sapiens, THP-1; compound 0.5 μM, LPS 500 ng/mL, 24 hours; read-out: THP-1/TNF-α (% inhib)
Protocol: (§1) To evaluate an inhibitory effect on cytokine secretion of monocytes, THP-1 cells (ATCC, #TIB-202) as a human-derived monocyte line were cultured in an RPMI-1640 (Hyclone, SH30027.01) medium supplemented with 10% fetal bovine serum (Hyclone, SH30084.03), 1% penicillin streptomycin (Welgene, LS202-02), and 50 μM 2-mercaptoethanol (Gibco, #21985023). In the test, the cells were seeded in a 48-well plate (SPL, #30048) at a density of 1.5 to 2×10^5 cells/250 μL per well, and cultured at 37° C. for 16 hours in a 5% CO2 incubator. Thereafter, the compound was diluted with DMSO so that the final concentration of the compound was 0.5 μM. Then, the cells were treated with the diluted compound before an hour of treatment with lipopolysaccharides (LPS) (Sigma, #L6529). After the treatment with the compound, the cells were treated with LPS so that the final concentration was 500 ng/mL. Then, a cell culture broth was collected after 24 hours of culture, and levels of cytokine IL-6 (R&D Systems, #D6050) and TNF-α (R&D Systems, #DTA00D) comprised in the culture broth were measured using respective ELISA kits. After an experiment was performed according to the manufacturer's guidelines, cell analysis was performed by measuring the optical density at 450 nm using a microplate reader.

IL-6 = assay: Inhibition of LPS-induced IL-6 secretion of THP-1 monocytes (ELISA); format: cell-based, human; details: Homo sapiens, THP-1; compound 0.5 μM, LPS 500 ng/mL, 24 hours; read-out: THP1/IL6 (% inhib)
Protocol: as §1

human GST-CLK1 = biological target: T2, human GST-CLK1 (Homo sapiens, UniProt P49759); assay: GST-CLK1 enzyme inhibition, ADP-Glo kinase assay; format: biochemical; details: ATP 10 μM, GST-CLK1 129-end
T2 construct: purified human GST-CLK1 (129-end, SignalChem) enzyme; purchased SignalChem
How it was run: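 Human GST-CLK1 (129-end, 3 ng) reacted with substrate and 10 μM ATP for 1 h at 25° C in 40 mM Tris-HCl pH 7.4, 20 mM MgCl2, 0.5 mg/mL BSA, 50 μM DTT. ADP-Glo luminescence was normalised to solvent control; IC50 (nM) from 3 data sets.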

LRRK2 = LRRK2 (Homo sapiens, UniProt Q5S007); assay: LRRK2 enzyme inhibition, ADP-Glo kinase assay; format: biochemical; design: purchased Invitrogen PR8604B; details: ATP 10 μM
How it was run: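 Purified human LRRK2 (25 ng) with 10 μM ATP and 0.2 μg substrate in 40 mM Tris-HCl pH 7.4, 20 mM MgCl2, 0.5 mg/mL BSA, 50 μM DTT, 2 h at 25° C. ADP-Glo luminescence; 12-point compound series from 50 μM final; IC50 relative to solvent control.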

LRRK2 (G2019S) = LRRK2 (G2019S) (Homo sapiens, UniProt Q5S007, G2019S); assay: LRRK2 G2019S enzyme inhibition, ADP-Glo kinase assay; format: biochemical; design: purchased SignalChem L10-12GG; details: ATP 25 μM
How it was run: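 Purified human LRRK2 G2019S (16 ng) with 25 μM ATP and 0.2 μg substrate, 2 h at 25° C. in Tris-HCl pH 7.4, MgCl2, BSA, DTT buffer; compounds at 12 final concentrations, 50 μM down to 0.000001024 μM. ADP-Glo luminescence versus solvent control gave IC50.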

T2 sequence (P49759 129-484 limits assumed): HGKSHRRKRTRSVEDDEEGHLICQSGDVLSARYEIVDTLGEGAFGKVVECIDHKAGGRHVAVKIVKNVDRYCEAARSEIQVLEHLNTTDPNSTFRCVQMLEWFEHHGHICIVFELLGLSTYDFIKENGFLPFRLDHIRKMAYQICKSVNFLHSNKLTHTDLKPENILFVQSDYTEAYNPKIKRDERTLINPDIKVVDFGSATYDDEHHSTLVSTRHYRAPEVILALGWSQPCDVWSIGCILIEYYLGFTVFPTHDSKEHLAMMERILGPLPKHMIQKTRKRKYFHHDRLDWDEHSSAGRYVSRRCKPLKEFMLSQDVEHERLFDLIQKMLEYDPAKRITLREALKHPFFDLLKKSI
Sequence of LRRK2 (G2019S) (Q5S007 970-2527 G2019S limits assumed): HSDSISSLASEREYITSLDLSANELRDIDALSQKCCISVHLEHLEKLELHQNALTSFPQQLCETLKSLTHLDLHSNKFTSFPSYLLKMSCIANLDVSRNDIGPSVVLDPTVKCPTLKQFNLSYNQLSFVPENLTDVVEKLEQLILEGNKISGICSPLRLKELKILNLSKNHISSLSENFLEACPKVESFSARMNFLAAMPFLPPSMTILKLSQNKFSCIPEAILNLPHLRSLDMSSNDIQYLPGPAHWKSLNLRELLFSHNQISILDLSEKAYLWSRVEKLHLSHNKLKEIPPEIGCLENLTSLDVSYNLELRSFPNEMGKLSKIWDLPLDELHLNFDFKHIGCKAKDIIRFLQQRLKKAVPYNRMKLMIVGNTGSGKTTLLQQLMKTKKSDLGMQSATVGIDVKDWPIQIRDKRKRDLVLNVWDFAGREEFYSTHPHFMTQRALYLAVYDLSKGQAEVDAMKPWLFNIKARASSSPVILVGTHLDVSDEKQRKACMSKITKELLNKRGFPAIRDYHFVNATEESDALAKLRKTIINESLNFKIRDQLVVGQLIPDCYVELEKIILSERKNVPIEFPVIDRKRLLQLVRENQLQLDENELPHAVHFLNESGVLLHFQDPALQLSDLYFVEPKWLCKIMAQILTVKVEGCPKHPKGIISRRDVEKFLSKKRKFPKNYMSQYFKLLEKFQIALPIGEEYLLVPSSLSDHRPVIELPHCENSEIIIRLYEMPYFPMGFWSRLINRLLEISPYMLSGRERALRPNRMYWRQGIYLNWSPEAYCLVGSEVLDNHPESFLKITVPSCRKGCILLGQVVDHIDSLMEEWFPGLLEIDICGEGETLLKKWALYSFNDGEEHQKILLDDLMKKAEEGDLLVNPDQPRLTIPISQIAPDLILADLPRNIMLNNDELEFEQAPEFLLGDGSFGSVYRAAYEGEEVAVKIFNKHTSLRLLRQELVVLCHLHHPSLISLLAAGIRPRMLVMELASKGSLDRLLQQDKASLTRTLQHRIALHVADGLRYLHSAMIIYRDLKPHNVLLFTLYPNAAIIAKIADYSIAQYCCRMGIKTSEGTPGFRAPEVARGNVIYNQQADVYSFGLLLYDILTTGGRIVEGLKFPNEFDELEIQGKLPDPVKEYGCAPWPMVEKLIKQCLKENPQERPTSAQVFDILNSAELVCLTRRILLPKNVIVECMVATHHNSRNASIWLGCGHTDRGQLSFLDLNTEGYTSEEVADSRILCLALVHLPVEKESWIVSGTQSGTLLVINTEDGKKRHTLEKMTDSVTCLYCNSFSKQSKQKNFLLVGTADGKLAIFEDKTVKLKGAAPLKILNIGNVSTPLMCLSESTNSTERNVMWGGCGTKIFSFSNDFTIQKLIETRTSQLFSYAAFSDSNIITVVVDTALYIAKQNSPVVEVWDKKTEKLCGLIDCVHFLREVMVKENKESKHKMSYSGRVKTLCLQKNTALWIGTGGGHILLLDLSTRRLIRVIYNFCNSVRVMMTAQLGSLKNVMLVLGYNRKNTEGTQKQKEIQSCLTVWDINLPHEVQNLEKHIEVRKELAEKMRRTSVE
Sequence of LRRK2 (Q5S007 970-2527 limits assumed): as the sequence (Q5S007 970-2527 G2019S limits assumed) above, with S1050G counted along it

| Compound | IC50 (human GST-DYRK1A) [nM] | IC50 (human GST-CLK1) [nM] | IC50 (LRRK2) [nM] | IC50 (LRRK2 (G2019S)) [nM] | inhibition at 1 µM (human DYRK1A and tau) [%] | inhibition at 0.25 µM (human DYRK1A and tau) [%] | inhibition at 0.5 µM (human DYRK1A and tau) [%] | inhibition at 0.5 µM (TNF-α) [%] | inhibition at 0.5 µM (IL-6) [%] |
| --- | --- | --- | --- | --- | --- | --- | --- | --- | --- |
| CNc1nc(Nc2ccc(C(=O)N3C[C@@H]4C[C@H]3CO4)c3c2OCCO3)nc2[nH]cc(C(F)(F)F)c12 [Example 408, ((1S,4S)-2-oxa-5-azabicyclo[2.2.1]heptan-5-yl)(8-((4-(methylamino)-5-(trifluoromethyl)-7H-pyrrolo[2,3-d]pyrimidin-2-yl)amino)-2,3-dihydrobenzo[b] [1,4]dioxin-5-yl)methanone] | < 100 | < 100 | < 100 | – | 48.5 | 20.6 | 40.3 | 4.3 | 19.5 |
| CNc1nc(Nc2ccc(C(=O)N3CCC(N4C[C@@H]5C[C@H]4CO5)CC3)c3c2OCC3)nc2[nH]cc(C(F)(F)F)c12 [Example 230, (4-((1S,4S)-2-oxa-5-azabicyclo[2.2.1]heptan-5-yl)piperidin-1-yl)(7-((4-(methylamino)-5-(tifluoromethyl)-7H-pyrrolo[2,3-d]pyrimidin-2-yl)amino)-2,3-dihydrobenzofuran-4-yl)methanone] | < 100 | < 100 | < 100 | < 100 | – | – | – | 1 | 34 |
| O=C(c1ccc(Nc2nc(N[C@H]3CCOC3)c3c(C(F)(F)F)c[nH]c3n2)c2c1OCCO2)N1CCN(C2COC2)CC1 [Example 418, (S)-(4-(oxetan-3-yl)piperazin-1-yl)(8-((4-((tetra-hydrofuran-3-yl)amino)-5-(trifluoromethyl)-7H-pyrrolo[2,3-d]pyrimidin-2-yl)amino)-2,3-dihydrobenzo[b] [1,4]dioxin-5-yl)methanone] | < 100 | < 100 | – | < 100 | 80.2 | 46.2 | 55.4 | 8.5 | 35.5 |
| CCNc1nc(Nc2ccc(C(=O)N3CCC(N4CCOCC4)CC3)c3c2OCO3)nc2[nH]cc(C(F)(F)F)c12 [Example 213, (7-((4-(ethylamino)-5-(trifluoromethyl)-7H-pyrrolo[2,3-d]pyrimidin-2-yl)amino)benzo[d][1,3]dioxol-4-yl)(4-morpholinopiperidin-1-yl)methanone] | < 100 | < 100 | < 100 | < 100 | – | – | – | 11.5 | 32.4 |
| O=C(c1ccc(Nc2nc(N[C@@H]3CCOC3)c3c(C(F)(F)F)c[nH]c3n2)c2c1OCCO2)N1CCN(C2COC2)CC1 [Example 416, (R)-(4-(oxetan-3-yl)piperazin-1-yl)(8-((4-((tetrahydrofuran-3-yl)amino)-5-(trifluoromethyl)-7H-pyrrolo[2,3-d]pyrimidin-2-yl)amino)-2,3-dihydrobenzo[b] [1,4]dioxin-5-yl)methanone] | < 100 | < 100 | – | < 100 | 86.8 | 54.2 | 75.9 | 8.1 | 45.6 |
| CNc1nc(Nc2ccc(C(=O)N3CC[C@@H](N4CCOCC4)C3)c3c2OCC3)nc2[nH]cc(C(F)(F)F)c12 [Example 237, (R)-(7-((4-(methylamino)-5-(trifluoromethyl)-7H-pyrrolo[2,3-d]pyrimidin-2-yl)amino)-2,3-dihydrobenzofuran-4-yl)(3-morpholinopyrrolidin-1-yl)methanone] | < 100 | < 100 | < 100 | < 100 | – | – | – | 18.9 | 41.1 |
| CCCNc1nc(Nc2ccc(C(=O)N3CCC(N4CCOCC4)CC3)c3c2OCC3)nc2[nH]cc(C#N)c12 [Example 349, 2-((4-(4-morpholino-piperidine-1-carbonyl)-2,3-dihydro-benzofuran-7-yl)amino)-4-(propylamino)-7H-pyrrolo[2,3-d]pyrimidine-5-carbonitrile] | < 100 | < 100 | – | – | 53.4 | 21 | 37 | 36.7 | 32.9 |

Second part, led by results:

| IC50 (human GST-DYRK1A) [nM] | IC50 (human GST-CLK1) [nM] | IC50 (LRRK2) [nM] | IC50 (LRRK2 (G2019S)) [nM] | Compound | inhibition at 1 µM (human DYRK1A and tau) [%] | inhibition at 0.25 µM (human DYRK1A and tau) [%] | inhibition at 0.5 µM (human DYRK1A and tau) [%] | inhibition at 0.5 µM (TNF-α) [%] | inhibition at 0.5 µM (IL-6) [%] |
| --- | --- | --- | --- | --- | --- | --- | --- | --- | --- |
| < 100 | < 100 | – | – | COCCNc1nc(Nc2ccc(C(=O)N3CCOCC3)c3c2OCC3)nc2[nH]cc(C(F)(F)F)c12 [Example 442, (7-((4-((2-methoxyethyl)amino)-5-(trifluoromethyl)-7H-pyrrolo[2,3-d]pyrimidin-2-yl)amino)-2,3-dihydrobenzo-furan-4-yl) (morpholino) methanone] | 80.8 | 45 | 51.5 | 1.9 | 31.4 |
| < 100 | < 100 | – | – | CC(C)Nc1nc(Nc2ccc(C(=O)N3CCC(N4CCOCC4)CC3)c3c2OCC3)nc2[nH]cc(C(F)(F)F)c12 [Example 450, (7-((4-(isopropylamino)-5-(trifluoromethyl)-7H-pyrrolo[2,3-d]pyrimidin-2-yl)amino)-2,3-dihydrobenzo-furan-4-yl)(4-morpho-linopiperidin-1-yl)methanone] | 84.9 | 37.2 | 66.8 | 7.5 | 11.4 |
| 101 to 300 | < 100 | < 100 | < 100 | CC(C)CNc1nc(Nc2ccc(C(=O)N3CCC(N4CCOCC4)CC3)c3c2OCC3)nc2[nH]cc(C(F)(F)F)c12 [Example 448, (7-((4-(iso-butylamino)-5-(trifluoromethyl)-7H-pyrrolo[2,3-d]pyrimidin-2-yl)amino)-2,3-dihydrobenzo-furan-4-yl)(4-morpho-linopiperidin-1-yl)methanone] | – | – | – | 17.7 | 26.2 |
| < 100 | < 100 | < 100 | < 100 | CCNc1nc(Nc2ccc(C(=O)N3CC[C@@H](N4CCOCC4)C3)c3c2OCC3)nc2[nH]cc(C(F)(F)F)c12 [Example 476, (R)-(7-((4-(ethylamino)-5-(trifluoromethyl)-7H-pyrrolo[2,3-d]pyrimidin-2-yl)amino)-2,3-dihydrobenzo-furan-4-yl)(3-morpholino-pyrrolidin-1-yl)methanone] | – | – | – | 24.5 | 47.4 |
